Measured values reported in patent US20220259196A1, “2-AMINOPYRIMIDINE COMPOUND AND USES THEREOF” (Shenyang Pharmaceutical University, priority 2019, published 2022).

Columns and labels:
JAK2 = JAK2 (Homo sapiens, UniProt O60674); test: in vitro JAK2 kinase activity test, Mobility Shift Assay; assay type: biochemical; conditions: compound concentration 0.1 μM; read-out: Percentage of inhibition against JAK2 at 0.1 μM
Procedure: The in vitro JAK2 and FLT3 kinase activity test was performed on the compounds of the 2-aminopyrimidine backbone of the above formula I (concentration 0.1 μM) according to the present invention using Mobility Shift Assay. The control compounds Pacritinib and Fedratinib were prepared by our research group.
(§1) The kinase buffer was composed of 50 mM HEPEs (pH 7.5) and 0.0015% BRIJ-35. The stop buffer contained a mixture of 100 mM HEPES (pH 7.5), 0.015% BRIJ-35, 0.2% coating reagent #3 and 50 mM EDTA. The compound to be tested was diluted with 100% DMSO to 50 times the highest concentration required in the reaction. The dilution of compound to be tested (100 μL) was transferred to the wells of a 96-well plate. […] was added to two wells of the plate as a control group and the plate was marked as the source plate. 10 μL of compound was transferred from the source plate to a new 96-well plate to prepare an intermediate plate. In the intermediate plate, an additional 90 μL of kinase buffer was added to each well. The intermediate plate was shaken for 10 minutes, and then 5 μL of each well of the 96-well intermediate plate was copied to a 384-well plate as an analysis plate. The prepared enzyme solution was added to each well of the 384-well plate, then incubated at room temperature for 10 minutes, and then 10 μL of the prepared peptide solution (FAM-labeled peptide and ATP in kinase-based buffer) was added. The sample was incubated at 28° C. for 1 hours, and then 25 μL of buffer was added. The conversion data from the Caliper program was copied and converted to the inhibition rate.
(§2) Inhibition rate (%)=(max−conversion)/(max−min)×100.

FLT3 = molecular target: T1, FLT3 (Homo sapiens, UniProt P36888); test: in vitro FLT3 kinase activity test, Mobility Shift Assay; assay type: biochemical; conditions: compound concentration 0.1 μM; read-out: Percentage of inhibition against FLT3 at 0.1 μM
T1 sequence (P36888 27-993): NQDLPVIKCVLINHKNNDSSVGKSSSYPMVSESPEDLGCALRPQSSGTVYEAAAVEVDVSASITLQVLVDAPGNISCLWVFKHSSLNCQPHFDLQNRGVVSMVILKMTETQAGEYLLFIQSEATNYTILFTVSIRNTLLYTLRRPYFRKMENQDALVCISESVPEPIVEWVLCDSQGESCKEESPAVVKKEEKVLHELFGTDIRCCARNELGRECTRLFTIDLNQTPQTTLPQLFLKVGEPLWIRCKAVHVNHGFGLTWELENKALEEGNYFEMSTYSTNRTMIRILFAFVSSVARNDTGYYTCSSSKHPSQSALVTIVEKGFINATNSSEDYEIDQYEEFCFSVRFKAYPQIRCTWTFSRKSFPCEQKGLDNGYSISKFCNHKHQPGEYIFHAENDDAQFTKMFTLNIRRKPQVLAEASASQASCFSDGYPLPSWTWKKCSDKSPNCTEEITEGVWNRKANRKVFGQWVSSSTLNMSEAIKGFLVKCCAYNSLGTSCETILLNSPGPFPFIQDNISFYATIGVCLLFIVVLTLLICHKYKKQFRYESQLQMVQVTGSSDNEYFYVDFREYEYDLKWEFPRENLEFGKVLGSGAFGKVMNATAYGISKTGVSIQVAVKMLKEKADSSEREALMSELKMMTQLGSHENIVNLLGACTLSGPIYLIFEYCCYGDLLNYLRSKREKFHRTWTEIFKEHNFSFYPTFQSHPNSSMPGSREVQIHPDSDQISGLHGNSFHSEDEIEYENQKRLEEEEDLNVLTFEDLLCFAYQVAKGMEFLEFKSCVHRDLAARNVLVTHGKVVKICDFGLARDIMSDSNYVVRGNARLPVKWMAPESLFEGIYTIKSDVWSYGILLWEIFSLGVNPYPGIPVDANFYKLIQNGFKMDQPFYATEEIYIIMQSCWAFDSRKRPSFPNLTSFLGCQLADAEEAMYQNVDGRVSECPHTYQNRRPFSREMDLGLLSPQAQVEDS
Procedure: The in vitro JAK2 and FLT3 kinase activity test was performed on the compounds of the 2-aminopyrimidine backbone of the above formula I (concentration 0.1 μM) according to the present invention using Mobility Shift Assay.
as §1, §2

Chain of JAK2 (O60674 whole entry): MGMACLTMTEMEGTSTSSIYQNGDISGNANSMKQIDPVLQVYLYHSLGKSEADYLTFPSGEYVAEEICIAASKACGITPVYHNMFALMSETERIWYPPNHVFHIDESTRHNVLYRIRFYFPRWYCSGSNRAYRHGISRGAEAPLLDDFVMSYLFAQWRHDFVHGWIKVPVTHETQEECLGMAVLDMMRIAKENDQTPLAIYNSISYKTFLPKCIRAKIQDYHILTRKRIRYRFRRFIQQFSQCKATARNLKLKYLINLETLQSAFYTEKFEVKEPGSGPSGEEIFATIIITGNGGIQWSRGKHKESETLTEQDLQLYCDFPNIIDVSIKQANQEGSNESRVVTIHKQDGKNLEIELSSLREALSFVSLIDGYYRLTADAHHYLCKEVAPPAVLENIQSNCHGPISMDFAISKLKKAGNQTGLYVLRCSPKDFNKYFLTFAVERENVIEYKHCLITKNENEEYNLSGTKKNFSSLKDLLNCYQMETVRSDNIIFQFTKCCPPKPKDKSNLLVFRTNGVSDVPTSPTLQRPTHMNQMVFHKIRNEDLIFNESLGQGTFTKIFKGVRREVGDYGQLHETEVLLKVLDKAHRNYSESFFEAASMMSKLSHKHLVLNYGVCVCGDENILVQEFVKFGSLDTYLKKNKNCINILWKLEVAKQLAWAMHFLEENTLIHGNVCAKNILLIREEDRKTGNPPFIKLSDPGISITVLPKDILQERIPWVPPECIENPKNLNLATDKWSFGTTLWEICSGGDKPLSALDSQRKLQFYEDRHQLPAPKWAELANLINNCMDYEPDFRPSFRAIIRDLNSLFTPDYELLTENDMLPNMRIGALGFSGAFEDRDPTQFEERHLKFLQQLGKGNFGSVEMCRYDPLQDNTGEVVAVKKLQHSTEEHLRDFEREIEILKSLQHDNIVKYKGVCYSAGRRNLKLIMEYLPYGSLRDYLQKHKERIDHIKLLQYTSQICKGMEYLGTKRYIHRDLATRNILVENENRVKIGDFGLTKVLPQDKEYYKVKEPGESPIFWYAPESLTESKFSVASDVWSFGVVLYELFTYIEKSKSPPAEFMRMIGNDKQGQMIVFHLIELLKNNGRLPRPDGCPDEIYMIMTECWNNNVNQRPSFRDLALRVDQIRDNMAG

Compound `CC(=O)c1ccc(NC(=O)N2CCN(c3ccnc(Nc4ccc(N5CCC(C)CC5)cc4)n3)CC2)cc1` [Example 17, N-(4-acetylphenyl)-4-(2-{[4-(4-methylpiperidin-1-yl)phenyl]amino}pyrimidin-4-yl)piperazine-1-carboxamide] has an inhibition at 0.1 µM (JAK2) of 53% and an inhibition at 0.1 µM (FLT3) of 54%.
`CC(=O)c1ccc(NC(=O)N2CCC(Nc3nc(Nc4ccc(N5CCOCC5)cc4)ncc3C)C2)cc1` (stereo not drawn) [Example 28, N-(4-acetylphenyl)-3-[(5-methyl-2-{[4-(morpholin-4-yl)phenyl]amino}pyrimidin-4-yl)amino]pyrrolidine-1-carboxamide] was tested, and the inhibition at 0.1 µM (JAK2) was 69.3% and the inhibition at 0.1 µM (FLT3) was 57.3%.
`O=C(Nc1ccccc1)N1CCN(c2ccnc(Nc3ccc(N4CCOCC4)cc3)n2)CC1` [Example 4, N-phenyl-4-(2-{[4-(morpholin-4-yl)phenyl]amino}pyrimidin-4-yl)piperazine-1-carboxamide] was tested, and the inhibition at 0.1 µM (JAK2) was 53.7% and the inhibition at 0.1 µM (FLT3) was 30.8%.
Work on `CNC(=O)c1ccc(NC(=O)N2CCN(c3ccnc(Nc4ccc(N5CCOCC5)cc4)n3)CC2)cc1` [Example 11, N-(4-methylcarbamoylphenyl)-4-(2-{[4-(morpholin-4-yl)phenyl]amino}pyrimidin-4-yl)piperazine-1-carboxamide] yielded an inhibition at 0.1 µM (JAK2) of 68.1% and an inhibition at 0.1 µM (FLT3) of 35.8%.
Work on `CC(=O)c1ccc(NC(=O)N2CCN(c3ccnc(Nc4ccc(OCCN5CCCC5)cc4)n3)CC2)cc1` [Example 16, N-(4-acetylphenyl)-4-[2-({4-[2-(pyrrolidin-1-yl)ethoxy]phenyl}amino)pyrimidin-4-yl]piperazine-1-carboxamide] yielded an inhibition at 0.1 µM (JAK2) of 45% and an inhibition at 0.1 µM (FLT3) of 69%.
With `CN1CCN(c2ccc(Nc3nccc(N4CCN(C(=O)Nc5ccc(C(N)=O)cc5)CC4)n3)cc2)CC1` [Example 15, N-(4-carbamoylphenyl)-4-(2-{[4-(4-methylpiperazin-1-yl)phenyl]amino}pyrimidin-4-yl)piperazine-1-carboxamide] the inhibition at 0.1 µM (JAK2) was 84% and the inhibition at 0.1 µM (FLT3) was 85%.
`NS(=O)(=O)c1ccc(NC(=O)N2CCN(c3ccnc(Nc4ccc(N5CCOCC5)cc4)n3)CC2)cc1` [Example 12, N-(4-aminosulfonylphenyl)-4-(2-{[4-(morpholin-4-yl)phenyl]amino}pyrimidin-4-yl)piperazine-1-carboxamide] showed an inhibition at 0.1 µM (JAK2) of 76% and an inhibition at 0.1 µM (FLT3) of 69.7%.
For `CC(=O)c1ccc(NC(=O)N2CCN(c3ccnc(Nc4ccc(OCCN5CCOCC5)cc4)n3)CC2)cc1` [Example 18, N-(4-acetylphenyl)-4-[2-({4-[2-(morpholin-4-yl)ethoxy]phenyl}amino)pyrimidin-4-yl]piperazine-1-carboxamide], the inhibition at 0.1 µM (JAK2) was 61.7% and the inhibition at 0.1 µM (FLT3) was 70.6%.
In the case of `O=C(Nc1ccc(OC(F)(F)F)cc1)N1CCN(c2ccnc(Nc3ccc(N4CCOCC4)cc3)n2)CC1` [Example 2, N-(4-trifluoromethoxyphenyl)-4-(2-{[4-(morpholin-4-yl)phenyl]amino}pyrimidin-4-yl)piperazine-1-carboxamide], the inhibition at 0.1 µM (JAK2) is reported as 54.3% and the inhibition at 0.1 µM (FLT3) is reported as 30.5%.
For `CC(=O)c1ccc(NC(=O)NC2CN(c3nc(Nc4ccc(N5CCOCC5)cc4)ncc3C)C2)cc1` [Example 31, 1-(4-acetylphenyl)-3-[1-(5-methyl-2-{[4-(morpholin-4-yl)phenyl]amino}pyrimidin-4-yl)azetidin-3-yl]urea], the inhibition at 0.1 µM (JAK2) was 21.9% and the inhibition at 0.1 µM (FLT3) was 50%.
In the case of `CC(=O)c1ccc(NC(=O)N2CCN(c3nc(Nc4ccc(N5CCOCC5)cc4)ncc3N)CC2)cc1` [Example 27, N-(4-acetylphenyl)-4-(5-amino-2-{[4-(morpholin-4-yl)phenyl]amino}pyrimidin-4-yl)piperazine-1-carboxamide], the inhibition at 0.1 µM (JAK2) is reported as 22.8% and the inhibition at 0.1 µM (FLT3) is reported as 67.9%.
`O=C(Nc1ccc([N+](=O)[O-])cc1)N1CCN(c2ccnc(Nc3ccc(N4CCOCC4)cc3)n2)CC1` [Example 7, N-(4-nitrophenyl)-4-(2-{[4-(morpholin-4-yl)phenyl]amino}pyrimidin-4-yl)piperazine-1-carboxamide] was tested, and the inhibition at 0.1 µM (JAK2) was 79.3% and the inhibition at 0.1 µM (FLT3) was 84.4%.
`CC(=O)c1ccc(NC(=O)NC2CCN(c3nc(Nc4ccc(N5CCOCC5)cc4)ncc3C)C2)cc1` (stereo not drawn) [Example 29, 1-(4-acetylphenyl)-3-[1-(5-methyl-2-{[4-(morpholin-4-yl)phenyl]amino}pyrimidin-4-yl)pyrrolidin-3-yl]urea] showed an inhibition at 0.1 µM (JAK2) of 57.4% and an inhibition at 0.1 µM (FLT3) of 75.7%.
`CC(=O)c1ccc(NC(=O)N2CCN(c3ccnc(Nc4ccc(OCCCN5CCOCC5)cc4)n3)CC2)cc1` [Example 19, N-(4-acetylphenyl)-4-[2-({4-[3-(morpholin-4-yl)propoxy]phenyl}amino)pyrimidin-4-yl]piperazine-1-carboxamide] gave an inhibition at 0.1 µM (JAK2) of 60.9% and an inhibition at 0.1 µM (FLT3) of 70.9%.
`NC(=O)c1ccc(NC(=O)N2CCN(c3ccnc(Nc4ccc(N5CCOCC5)cc4)n3)CC2)cc1` [Example 10, N-(4-carbamoylphenyl)-4-(2-{[4-(morpholin-4-yl)phenyl]amino}pyrimidin-4-yl)piperazine-1-carboxamide] showed an inhibition at 0.1 µM (JAK2) of 76.3% and an inhibition at 0.1 µM (FLT3) of 71.2%.
`CC(=O)Nc1ccc(NC(=O)N2CCN(c3ccnc(Nc4ccc(N5CCOCC5)cc4)n3)CC2)cc1` [Example 13, N-(4-acetylaminophenyl)-4-(2-{[4-(morpholin-4-yl)phenyl]amino}pyrimidin-4-yl)piperazine-1-carboxamide] gave an inhibition at 0.1 µM (JAK2) of 73% and an inhibition at 0.1 µM (FLT3) of 70.8%.
`CC(=O)c1ccc(NC(=O)N2CCN(c3nc(Nc4ccc(N5CCOCC5)cc4)nc4ccsc34)CC2)cc1` [Example 24, N-(4-acetylphenyl)-4-(2-{[4-(morpholin-4-yl)phenyl]amino}thieno[3,2-d]pyrimidin-4-yl)piperazine-1-carboxamide] was tested, and the inhibition at 0.1 µM (JAK2) was 44% and the inhibition at 0.1 µM (FLT3) was 68%.
`CCc1ccc(NC(=O)N2CCN(c3ccnc(Nc4ccc(N5CCOCC5)cc4)n3)CC2)cc1` [Example 3, N-(4-ethylphenyl)-4-(2-{[4-(morpholin-4-yl)phenyl]amino}pyrimidin-4-yl)piperazine-1-carboxamide] showed an inhibition at 0.1 µM (JAK2) of 53.3% and an inhibition at 0.1 µM (FLT3) of 27.4%.
In the case of `COC(=O)c1ccc(NC(=O)N2CCN(c3ccnc(Nc4ccc(N5CCOCC5)cc4)n3)CC2)cc1` [Example 5, N-(4-methoxyformylphenyl)-4-(2-{[4-(morpholin-4-yl)phenyl]amino}pyrimidin-4-yl)piperazine-1-carboxamide], the inhibition at 0.1 µM (JAK2) is reported as 64.4% and the inhibition at 0.1 µM (FLT3) is reported as 62.8%.
`COc1ccc(NC(=O)N2CCN(c3ccnc(Nc4ccc(N5CCOCC5)cc4)n3)CC2)cc1` [Example 1, N-(4-methoxyphenyl)-4-(2-{[4-(morpholin-4-yl)phenyl]amino}pyrimidin-4-yl)piperazine-1-carboxamide] gave an inhibition at 0.1 µM (JAK2) of 48.7% and an inhibition at 0.1 µM (FLT3) of 21.7%.
`N#Cc1ccc(NC(=O)N2CCN(c3ccnc(Nc4ccc(N5CCOCC5)cc4)n3)CC2)cc1F` [Example 8, N-(4-cyano-3-fluorophenyl)-4-(2-{[4-(morpholin-4-yl)phenyl]amino}pyrimidin-4-yl)piperazine-1-carboxamide] showed an inhibition at 0.1 µM (JAK2) of 63.7% and an inhibition at 0.1 µM (FLT3) of 70.3%.
